pIC50, pKd: −log10 of the molar value. Read-outs that look alike come from different tables or passages of the source.
Experiments:
U937 cells = test: Counter screen: cell viability without the TSQ cocktail (off-target effect); design: species or system human
Procedure, shortened: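 U937 cells (20000/well, HT-RPMI + 7.4% FBS) treated with compound (10-point 1:3 dilution from 36 μM, 0.3% DMSO) without the TSQ cocktail for 48 h at 37 °C/5% CO2. Viability read as ATP by CellTiter-Glo luminescence, flagging off-target cytotoxicity.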

human MLKL (full length) = human MLKL (full length) (Homo sapiens (Human), UniProt Q8NB16); test: KINOMEscan binding assay, human MLKL (full length)
Procedure, shortened: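 KINOMEscan competition binding using kinase-tagged T7 phage or HEK-293-produced DNA-tagged protein captured on ligand beads, with eluted protein quantified by qPCR. Compounds were run as an 11-point 3-fold series, top 30,000 nM, in 1% DMSO. Kd was fitted with the Hill equation, slope fixed at −1.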

[1] = Homo sapiens, U-937, Table 26, read-out: Off-target effect (IC50 cell-based assay)
[2] = hMLKL, Table 25, read-out: MLKL (KD)
[3] = KINOMEscan, Table 21, read-out: Human MLKL (full-length) (KD)
[4] = Table 23, read-out: Off-target effect (IC50 cell-based assay)

Sequence of human MLKL (full length) (Q8NB16 whole entry): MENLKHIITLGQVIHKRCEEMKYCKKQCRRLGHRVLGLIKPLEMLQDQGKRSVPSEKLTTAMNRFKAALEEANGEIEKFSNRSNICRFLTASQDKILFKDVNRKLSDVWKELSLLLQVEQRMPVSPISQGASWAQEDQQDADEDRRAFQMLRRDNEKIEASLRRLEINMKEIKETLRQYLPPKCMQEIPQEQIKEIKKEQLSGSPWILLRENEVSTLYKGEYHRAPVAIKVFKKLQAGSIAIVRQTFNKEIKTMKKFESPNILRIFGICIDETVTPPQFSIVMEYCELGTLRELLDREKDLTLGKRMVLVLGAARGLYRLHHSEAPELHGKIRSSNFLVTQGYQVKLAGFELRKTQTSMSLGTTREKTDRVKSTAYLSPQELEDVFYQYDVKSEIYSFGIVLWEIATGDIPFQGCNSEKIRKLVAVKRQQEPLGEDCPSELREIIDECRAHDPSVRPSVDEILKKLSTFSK

| pKd (human MLKL (full length); [2]) | pKd (human MLKL (full length); [3]) | Molecule | pIC50 (U937 cells; [1]) | pIC50 (U937 cells; [4]) |
| --- | --- | --- | --- | --- |
|  |  | Cc1ncsc1-c1ccc(CNC(=O)[C@@H]2C[C@@H](O)CN2C(=O)[C@@H](NC(=O)CCN2CCCC(n3cc(-c4cnc(N)c5c(-c6ccc(NS(=O)(=O)C(F)F)c(O[C@@H](C)c7ccc(F)cc7)c6)nn(C)c45)cn3)C2)C(C)(C)C)cc1 (stereo partly drawn) [Compound 1014, (2S,4R)-1-[(2S)-2-{3-[3-(4-{4-amino-3-[4-(difluoromethanesulfonamido)-3-[(1S)-1-(4-fluorophenyl)ethoxy]phenyl]-1-methyl-1H-pyrazolo[4,3-c]pyridin-7-yl}-1H-pyrazol-1-yl)piperidin-1-yl]propanamido}-3,3-dimethylbutanoyl]-4-hydroxy-N-{[4-(4-methyl-1,3-thiazol-5-yl)phenyl]methyl}pyrrolidine-2-carboxamide] | < 5.00 |  |
| > 8.00 |  | Cc1ncsc1-c1ccc(CNC(=O)[C@@H]2C[C@@H](O)CN2C(=O)[C@@H](NC(=O)COCCN2CCCC(n3cc(-c4cnc(N)c5c(-c6ccc(NS(=O)(=O)C(F)F)c(O[C@@H](C)c7ccc(F)cc7)c6)nn(C)c45)cn3)C2)C(C)(C)C)cc1 (stereo partly drawn) [Compound 1015, (2S,4R)-1-[(2S)-2-(2-{2-[3-(4-{4-amino-3-[4-(difluoromethanesulfonamido)-3-[(1S)-1-(4-fluorophenyl)ethoxy]phenyl]-1-methyl-1H-pyrazolo[4,3-c]pyridin-7-yl}-1H-pyrazol-1-yl)piperidin-1-yl]ethoxy}acetamido)-3,3-dimethylbutanoyl]-4-hydroxy-N-{[4-(4-methyl-1,3-thiazol-5-yl)phenyl]methyl}pyrrolidine-2-carboxamide] | < 5.00 |  |
| > 8.00 |  | Cc1ncsc1-c1ccc(CNC(=O)[C@@H]2C[C@@H](O)CN2C(=O)[C@@H](NC(=O)COCCN2CCC(n3cc(-c4cnc(N)c5c(-c6ccc(NS(=O)(=O)C(F)F)c(O[C@@H](C)c7ccc(F)cc7)c6)nn(C)c45)cn3)CC2)C(C)(C)C)cc1 [Compound 1018, (2S,4R)-1-[(2S)-2-(2-{2-[4-(4-{4-amino-3-[4-(difluoromethanesulfonamido)-3-[(1S)-1-(4-fluorophenyl)ethoxy]phenyl]-1-methyl-1H-pyrazolo[4,3-c]pyridin-7-yl}-1H-pyrazol-1-yl)piperidin-1-yl]ethoxy}acetamido)-3,3-dimethylbutanoyl]-4-hydroxy-N-{[4-(4-methyl-1,3-thiazol-5-yl)phenyl]methyl}pyrrolidine-2-carboxamide] | < 5.00 |  |
| > 8.00 |  | Cc1ncsc1-c1ccc(CNC(=O)[C@@H]2C[C@@H](O)CN2C(=O)[C@@H](NC(=O)COCCOCCn2cc(-c3cnc(N)c4c(-c5ccc(NS(=O)(=O)C(F)F)c(O[C@@H](C)c6ccc(F)cc6)c5)nn(C)c34)cn2)C(C)(C)C)cc1 [Compound 1006, (2S,4R)-1-[(2S)-2-(2-{2-[2-(4-{4-amino-3-[4-(difluoromethanesulfonamido)-3-[(1S)-1-(4-fluorophenyl)ethoxy]phenyl]-1-methyl-1H-pyrazolo[4,3-c]pyridin-7-yl}-1H-pyrazol-1-yl)ethoxy]ethoxy}acetamido)-3,3-dimethylbutanoyl]-4-hydroxy-N-{[4-(4-methyl-1,3-thiazol-5-yl)phenyl]methyl}pyrrolidine-2-carboxamide] | 5.00 to 6.00 |  |
|  | 7.00 to 9.00 | Nc1ncc(-c2cnn(C3CCOCC3)c2)c2[nH]nc(-c3ccc(NS(=O)(=O)C(F)F)c(OCc4cccc(Cl)c4)c3)c12 [Compound 131] |  | < 5.00 |
|  | > 9.00 | N-(4-(4-amino-1-methyl-7-(1-(1,2,2-trimethylpiperidin-4-yl)-1H-pyrazol-4-yl)-1H-pyrazolo[4,3-c]pyridin-3-yl)-2-((S)-1-(4-fluorophenyl)ethoxy)phenyl)-1,1-difluoromethanesulfonamide [Compound 113] |  | < 5.00 |
| > 8.00 |  | Cc1ncsc1-c1ccc(CNC(=O)[C@@H]2C[C@@H](O)CN2C(=O)[C@@H](NC(=O)CCCCCCn2cc(-c3cnc(N)c4c(-c5ccc(NS(=O)(=O)C(F)F)c(O[C@@H](C)c6ccc(F)cc6)c5)nn(C)c34)cn2)C(C)(C)C)cc1 [Compound 1008, (2S,4R)-1-[(2S)-2-[7-(4-{4-amino-3-[4-(difluoromethanesulfonamido)-3-[(1 S)-1-(4-fluorophenyl)ethoxy]phenyl]-1-methyl-1H-pyrazolo[4,3-c]pyridin-7-yl}-1H-pyrazol-1-yl)heptanamido]-3,3-dimethylbutanoyl]-4-hydroxy-N-{[4-(4-methyl-1,3-thiazol-5-yl)phenyl]methyl}pyrrolidine-2-carboxamide] | 5.00 to 6.00 |  |
| 6.00 to 8.00 |  | C[C@H](Oc1cc(-c2nn(C)c3c(-c4cnn(CCCCCCCOc5cccc6c5C(=O)N(C5CCC(=O)NC5=O)C6=O)c4)cnc(N)c23)ccc1NS(=O)(=O)C(F)F)c1ccc(F)cc1 (some centres unmarked) [Compound 1031, N-(4-{4-amino-7-[1-(7-{[2-(2,6-dioxopiperidin-3-yl)-1,3-dioxo-2,3-dihydro-1H-isoindol-4-yl]oxy}heptyl)-1H-pyrazol-4-yl]-1-methyl-1H-pyrazolo[4,3-c]pyridin-3-yl}-2-[(1 S)-1-(4-fluorophenyl)ethoxy]phenyl)-1,1-difluoromethanesulfonamide] |  |  |
